These results are taken from patent US12396977B2, “Composition for treating degenerative brain diseases, containing 2-pentylfuran as active ingredient” (DAEGU GYEONGBUK INSTITUTE OF SCIENCE AND TECHNOLOGY, priority 2019, dated 2025).

The subject of experiment [1] is primary microglia. Nature of the experiment: Phagocytosis of FITC-dextran by primary microglia (FACS). In kind it is cell-based, mouse. The settings on record: 100, 300, and 500 μM. The procedure:
Primary microglia were cultured for 24 hours after being seeded in a 24-well plate (5×10^5 cells/well). Cells were pre-cultured with 2-PF or Sup for 30 minutes, transferred to FITC-dextran (1 mg/ml, 20 mg/ml in PBS; #FD70S; Sigma Aldrich) in serum-free DMEM at 37° C. for […], and washed with PBS at 4° C. Cells were detached by 0.25% trypsin in PBS (#15090-046; Thermo Fisher Scientific) and the detached cells were analyzed by FACS Accuri™ C6 (BD Biosciences). Mean fluorescence intensity (MFI) was calculated by integrating fluorescence histograms under each condition using the aforementioned software. The phagocytosis index was defined as MFI using an untreated group as a standard.

Experiment [2] concerns primary microglia. Kind of experiment: Active oxygen (ROS) production in primary microglia. It is filed as cell-based, mouse. The procedure:
Superoxide concentrations were calculated by measuring the degree of decrease in cytochrome c using a VersaMax microplate reader (Babior et al., 1973). Microglia were cultured on a 96-well plate at a concentration of 1.0×10^5 cells/well, and the microglia were activated by a 10 μM ATP solution containing 2-pentylfuran and cytochrome c, or a solution of Sup mixed with cytochalasin B (5 μM; #C66762; Sigma Aldrich). The resulting ROS concentration was measured by changes in light absorption at 550 nm at intervals of 1 minute for 25 minutes.
Active oxygen levels were measured using 2′,7′-dichlorodihydrofluorescein diacetate (DCF-DA, #D6883; Sigma Aldrich) using a method that had undergone minor modifications from the existing method. (Bae et al., 2001). More specifically, the primary microglia were treated with 10 μM DCF-DA in a 24-well plate (5.0×10^5 cells/well) […] at a temperature of 37° C. for 30 minutes. One plate was treated with 2-PF and one was not. Cells in each well were measured by a flow cytometer (FACS Accuri™ C6; BD Biosciences). MFI was measured in the same manner as described above.

The target of experiment [3] is T1, Olfr110 F104W mutation (Mus musculus, UniProt A2RT31, F104W).
T1 construct: Full-length odorant receptor genes from mouse and human genomic DNA were amplified using appropriate primers; Lucy (N); Flag (N); Rho (N); expressed in transfected cells; host or cells: Hana3A cells
T1 sequence (A2RT31 1-317 F104W): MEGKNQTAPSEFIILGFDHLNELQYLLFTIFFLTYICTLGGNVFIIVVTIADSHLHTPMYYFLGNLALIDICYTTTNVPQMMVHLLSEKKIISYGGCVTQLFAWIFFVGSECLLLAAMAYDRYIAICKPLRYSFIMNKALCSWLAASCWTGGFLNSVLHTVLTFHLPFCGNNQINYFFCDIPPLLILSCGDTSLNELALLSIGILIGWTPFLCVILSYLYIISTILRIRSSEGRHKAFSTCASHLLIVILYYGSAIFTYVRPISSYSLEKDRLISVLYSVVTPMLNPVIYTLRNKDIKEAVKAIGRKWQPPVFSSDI
Nature of the experiment: Luciferase assay, Olfr110 F104W mutant. The settings on record: increasing concentration of 2-PF. In kind it is cell-based. The text has this: Specific mutant vectors of the Olfr110 structure were generated using PfuUltra High-Fidelity DNA polymerase (#600380; Agilent Technologies). All mutant vectors (F102W; F104W; Y252F; Y259F; F102W/F104W; Y252F/Y259F; F102W/Y252F/Y259F; F104W/Y252F/Y259F; F102W/F104W/Y252F/Y259F) were sequenced in forward and reverse directions (Macrogen).

In experiment [4] the test system is primary microglia. Kind of experiment: Fura-2/AM calcium imaging of microglia. In kind it is cell-based, mouse. The conditions noted are these: 2-PF 100, 300, 1000 μM. As to the method: The newly isolated microglia were placed on poly-D-lysine-coated 18-mm aperture microscope cover glasses (#0111580; Marienfeld), and after 24 hours, the microglia were cultured in a superfusion chamber for 30 minutes. The chamber contained 4 μM of Fura-2/AM (Ca^2+-sensitive fluorescent dye; #F1221; Thermo Fisher Scientific) in a 0.22 μm-filtered Ringer's solution (115 mM NaCl, 2.5 mM KCl, 1 mM CaCl2, 1.5 mM MgCl2, 4.5 mM HEPES, pH 7.4). After calcium staining culture, the chamber was placed under an inverted microscope and rinsed with Ringer's solution for 20 minutes before treatment with […]. In this case, the flow rate of the solution is 12 ml/min. Next, the primary microglia were treated with 300 μM ATP (#A2383; Sigma Aldrich) for 5 seconds. After being washed for 5 minutes, the primary microglia were treated with a 2-pentylfuran solution at a concentration of 100 μM for 5 seconds. This step was performed with a 2-pentylfuran solution at two concentrations (300 and 1000 μM). Finally, the primary microglia were treated with a 300 μM ATP solution for 5 seconds. The emitted fluorescent material was photographed using a CCD camera every 2 seconds. Pseudo-color images were converted using fractional fluorescence changes (ΔF/F, Δ[Ca^2+]i). Furthermore, these images show changes in intracellular calcium ions. […]

In the case of `CCCCCc1ccco1` [2-PF, 2-pentylfuran], the phagocytosis of microglia result in experiment [1] was “significantly increased in a concentration-dependent manner”. The “production of active oxygen on top of Sup MOI 5” value in experiment [2] (500 μM 2-PF) is reported as “further increased”. The “active oxygen secretion of microglia” value in experiment [2] (100, 300, and 500 μM) is on record as “significantly increased in a concentration-dependent manner”. For the same compound, the “luciferase activity of Olfr110 F104W mutant” value in experiment [3] is “completely lost”. The “intracellular calcium ion levels” value in experiment [4] was “increased according to an injection amount”.
